{
  "source": "patent US20260337225A1",
  "about": "“SMALL PEPTIDE AND USE THEREOF IN MUCOSAL REPAIR” (FORREST BIO-PHARM (SHENZHEN) CO., LTD., priority 2022, published 2026)",
  "key": {"[1]": {"test_system": "mouse model of acute gastric ulcer", "test": "Mouse model of acute gastric ulcer (anhydrous ethanol)", "type": "in vivo", "method": "In this embodiment, the function of the small peptides obtained in Embodiment 2 was validated using a mouse model of acute gastric ulcer.\nControl group (model group): A mouse mode of acute gastric ulcer was constructed using anhydrous ethanol (0.1 mL/10 g) (referring to the literature of Study on Action of kangfuxin Solution on Experimental Gastric ulcer [J]. Chinese Traditional Patent Medicine, 2001, 23(2): 122-124. DOI: 10.3969/j.issn.1001-1528.). After modeling, the mice were administered with an equal volume of saline.\nBlank group: The mice were administered with an equal volume of saline.\nDrug treatment groups: A mouse mode of acute gastric ulcer was constructed by treating the mouse with anhydrous ethanol (0.1 mL/10 g). At 2 h, 12 h, and 22 h after modeling, the mice were administered with the rice polypeptide mixture (50 mg/kg) as the mixture group, small peptide P1 (0.5 mg/kg) as the P1 group, and small peptide P2 (0.5 mg/kg) as the P2 group, respectively.\nEach group consisted of 8 mice. After 24 h of modeling, the mice were sacrificed, to extract the gastric tissue, and observe changes in bleeding points and ulcer area via gastric tissue dissection."}, "[2]": {"test_system": "rat model of chronic gastric ulcer", "test": "Rat model of chronic gastric ulcer (anhydrous ethanol followed by aspirin)", "type": "in vivo", "method": "The function of the small peptides obtained in Embodiment 2 was validated in the present embodiment by using a rat model of chronic gastric ulcer.\nControl group (model group): A rat model of chronic gastric ulcer model was constructed by intragastric administration of anhydrous ethanol (1 mL/200 g), followed by intragastric administration of 200 mg/kg aspirin 2 h later. The rats were administered with aspirin once daily for 4 days. At day 5, the rats were administered with an equal volume of saline.\nBlank group: The rats were administered with an equal volume of saline.\nDrug treatment groups: A rat model of chronic gastric ulcer was constructed as above-mentioned. At day 5, the rats were respectively administered with the rice polypeptide mixture (50 mg/kg), small peptide P1 (0.5 mg/kg), or small peptide P2 (0.5 mg/kg) twice daily for 3 days. On day 4, the rats were sacrificed and their gastric necropsy was performed.\nPositive control group (omeprazole 2.6 mg/kg): A rat model of chronic gastric ulcer was constructed as above. At day 5, the rats were administered with omeprazole (2.6 mg/kg) twice daily for 3 days. On day 4, The rats were sacrificed and their gastric necropsy was performed.\nEach group consisted of 10 rats. After 24 h of modeling, the rats were sacrificed to extract the gastric tissue, for measuring gastric pH, and observing changes in ulcer area via gastric tissue dissection. Liver and kidney tissues were collected for pathological section observation to assess drug safety."}, "[3]": {"test_system": "normal human hepatic parenchymal L-02 cells", "test": "Hepatotoxicity: cytotoxicity in L-02 cells by CCK-8 assay", "type": "cell-based", "details": "10-200 μg/mL, 24 h, in words", "method": "Referring to the method from a literature (Determination of emodin in L-02 cells and cell culture media with liquid chromatography-mass spectrometry: Application to a cellular toxicokinetic study. J Pharm Biomed Anal. 2012; 71:71-78), normal human hepatic parenchymal L-02 cells (obtained from Shanghai Cell Bank) were seeded into 96-well plates and treated with small peptides P1 and P2 at concentrations of 0 μg/mL, 10 μg/mL, 20 μg/mL, 50 μg/mL, 100 μg/mL, and 200 μg/mL. After 24-hour stimulation, the cytotoxicity was assessed by Cell Counting Kit-8 (CCK-8) assay."}, "[4]": {"test_system": "normal human kidney-2 cells (HK-02, HK-2)", "test": "Nephrotoxicity: cytotoxicity in HK-2 cells by CCK-8 assay", "type": "cell-based", "details": "10-200 μg/mL, 24 h, in words", "method": "Referring to the method from a literature (Sinomenine improve diabetic nephropathy by inhibiting fibrosis and regulating the JAK2/STAT3/SOCS1 pathway in streptozotocin-induced diabetic rats. Life Sci. 2021; 265:118855), normal human kidney-2 cells (HK-02, HK-2) (Shanghai Cell Bank) were seeded into 96-well plates and administered with small peptides P1 and P2 at concentrations of 0 μg/mL, 10 μg/mL, 20 μg/mL, 50 μg/mL, 100 μg/mL, and 200 μg/mL. After 24-hour stimulation, the cytotoxicity was assessed by Cell Counting Kit-8 (CCK-8) assay."}, "[5]": {"test": "Animal safety observation: rat body weight", "type": "in vivo", "details": "for Rat body weight: 1000 mg/kg daily, intragastric gavage, individual rats, Rat 1-7 = c1-c7, 1000 mg/kg", "method": "(§1) The rats were administered with the small peptides via intragastric gavage at doses of 500 mg/kg and 1000 mg/kg daily for 14 days. Changes in body weight were recorded. On day 14, the rats were sacrificed to measure alaninetransaminase (ALT) activity and blood urea nitrogen (BUN) levels in rat serum for assessing whether there was hepatotoxicity and nephrotoxicity in rats."}, "Rat liver": {"test_system": "Rat liver", "test": "Animal safety observation: rat liver injury (serum alaninetransaminase activity)", "type": "in vivo", "details": "14 days; for Alaninetransaminase Activity, Average / Alaninetransaminase Activity: intragastric gavage, rat serum; for Alaninetransaminase Activity, Average: average of 6 rats, saline average P1 35.83333, P2 30.83333; for Alaninetransaminase Activity: individual rats (Rat 1-6)", "method": "as §1"}, "Rat kidney": {"test_system": "Rat kidney", "test": "Animal safety observation: rat kidney injury (serum blood urea nitrogen levels)", "type": "in vivo", "details": "14 days; for Blood Urea Nitrogen Levels: intragastric gavage, rat serum, individual rats (Rat 1-6)", "method": "as §1"}, "mucosal repair": {"test_system": "mucosal repair", "test": "Screening of active monomers for mucosal repair effects", "details": "repeated experiments and screening; in words", "from_the_text": "The inventors observed the active monomers in the polypeptide mixture of Polimi-1 rice variety by mass spectrometry analysis of the polypeptides from various ordinary rice varieties and Polimi-1 rice variety. The small peptides identical to ordinary rice varieties and with high levels in ordinary rice varieties were excluded by a method of exclusion. Finally, the small peptides with higher levels in Polimi-1 rice variety and lower levels in other ordinary rice varieties were selected for further study, as well as those with higher levels in Polimi-1 rice variety and absent in other ordinary rice varieties. Since peptides with molecular weights below 1500 Daltons were extracted from the mixed polypeptide mixture previously obtained, other peptides above this threshold were excluded."}, "[6]": {"details": "500 and 1000 mg/kg daily, rats, in words"}},
  "note": "“And” between values parts separate entries of the source, which are not always exact repeats. Equal entries are not always repeated. No end group written: not given here.",
  "data": [
    {"sequence": "GASRIIGVDL [Small peptide P1, GASRIIGVDL]", "values": [
      {"measurement": "Ulcer index", "setting": "[1]; 0.5 mg/kg at 2 h, 12 h and 22 h after modeling, 8 mice, ratio of ulcer area to gastric mucosal tissue area, Control group 58.3 ± 10.1", "value": "8.2 ± 3.1", "unit": "%"},
      {"measurement": "Ulcer inhibition rate", "setting": "[1]; 0.5 mg/kg at 2 h, 12 h and 22 h after modeling, percentage reduction in ulcer area compared to the Control group", "value": 85.9, "unit": "%"},
      {"measurement": "result compared to the mixture group", "setting": "[1]; 0.5 mg/kg versus mixture 50 mg/kg, in words", "value": "better results than the mixture in larger dose"},
      {"measurement": "anti-ulcer effects", "setting": "[1]; 0.5 mg/kg, in words", "value": "excellent anti-ulcer effects"},
      {"measurement": "Ulcer index", "setting": "[2]; 0.5 mg/kg twice daily for 3 days, 10 rats, ratio of ulcer area to gastric mucosal tissue area, Control group 40.5 ± 5.3", "value": "5.8 ± 2.5", "unit": "%"},
      {"measurement": "Ulcer inhibition rate", "setting": "[2]; 0.5 mg/kg twice daily for 3 days, percentage reduction in ulcer area compared to the Control group", "value": 85.7, "unit": "%"},
      {"measurement": "anti-ulcer effects", "setting": "[2]; P1, P2 0.5 mg/kg, mixture 50 mg/kg, in words", "value": "exhibit anti-ulcer effects"},
      {"measurement": "P versus Positive control group", "setting": "[2]; anti-ulcer effects compared to omeprazole 2.6 mg/kg, P1, P2 0.5 mg/kg, mixture 50 mg/kg", "value": "> 0.05"},
      {"measurement": "viability of normal human liver cells L-02", "setting": "[3]", "value": "no effect"},
      {"measurement": "hepatotoxicity", "setting": "[3]; L-02 cells", "value": "no hepatotoxicity"},
      {"measurement": "viability of normal human kidney cells HK-02 (HK-2)", "setting": "[4]", "value": "no effect"},
      {"measurement": "nephrotoxicity", "setting": "[4]; HK-2 cells", "value": "no nephrotoxicity"},
      {"measurement": "Rat body weight", "setting": "[5]; Day 1", "value": "210 g and 214 g and 218 g and 217 g and 216 g (2×) and 213 g"},
      {"measurement": "Rat body weight", "setting": "[5]; Day 2", "value": "212 g and 215 g (2×) and 219 g and 220 g and 222 g and 217 g"},
      {"measurement": "Rat body weight", "setting": "[5]; Day 3", "value": "212 g and 216 g and 220 g and 221 g and 224 g and 209 g and 218 g"},
      {"measurement": "Rat body weight", "setting": "[5]; Day 4", "value": "214 g and 218 g"},
      {"measurement": "Rat body weight", "setting": "[5]; Day 5", "value": "215 g and 220 g (2×) and 224 g and 228 g (2×) and 225 g"},
      {"measurement": "Rat body weight", "setting": "[5]; Day 6", "value": "215 g and 227 g and 224 g and 230 g and 229 g and 223 g and 228 g"},
      {"measurement": "Rat body weight", "setting": "[5]; Day 7", "value": "216 g and 228 g and 229 g (2×) and 236 g and 231 g and 224 g"},
      {"measurement": "Rat body weight", "setting": "[5]; Day 8", "value": "218 g and 229 g and 232 g and 235 g and 233 g and 228 g and 231 g"},
      {"measurement": "Rat body weight", "setting": "[5]; Day 9", "value": "220 g and 229 g and 234 g (2×) and 238 g and 233 g and 230 g"},
      {"measurement": "Rat body weight", "setting": "[5]; Day 10", "value": "225 g and 231 g and 237 g and 239 g and 238 g and 234 g and 236 g"},
      {"measurement": "Rat body weight", "setting": "[5]; Day 11", "value": "226 g and 232 g and 238 g and 241 g (2×) and 237 g and 239 g"},
      {"measurement": "Rat body weight", "setting": "[5]; Day 12", "value": "227 g and 233 g and 238 g and 243 g (2×) and 244 g and 239 g"},
      {"measurement": "Rat body weight", "setting": "[5]; Day 13", "value": "228 g and 235 g and 239 g and 244 g (2×) and 248 g and 240 g"},
      {"measurement": "Rat body weight", "setting": "[5]; Day 14", "value": "230 g and 237 g and 240 g and 247 g and 249 g and 243 g (2×)"},
      {"measurement": "Rat body weight", "setting": "[5]; Day 15", "value": "235 g and 238 g and 242 g and 248 g and 250 g and 245 g (2×)"},
      {"measurement": "effects on rat body weight", "setting": "[5]; daily intragastric gavage for 14 days, in words", "value": "minimal effects"},
      {"measurement": "Alaninetransaminase Activity, Average", "setting": "Rat liver; 500 mg/kg daily", "value": 27, "unit": "IU/L"},
      {"measurement": "Alaninetransaminase Activity", "setting": "Rat liver; 500 mg/kg daily", "value": "35 IU/L and 44 IU/L and 20 IU/L and 15 IU/L and 21 IU/L and 27 IU/L"},
      {"measurement": "Alaninetransaminase Activity, Average", "setting": "Rat liver; 1000 mg/kg daily", "value": 39.83, "unit": "IU/L"},
      {"measurement": "Alaninetransaminase Activity", "setting": "Rat liver; 1000 mg/kg daily", "value": "32 IU/L and 39 IU/L and 50 IU/L and 27 IU/L and 47 IU/L and 44 IU/L"},
      {"measurement": "hepatotoxicity", "setting": "Rat liver; [6]", "value": "without hepatotoxicity"},
      {"measurement": "Blood Urea Nitrogen Levels", "setting": "Rat kidney; 500 mg/kg daily", "value": "25 mg/dL and 39 mg/dL and 29 mg/dL and 33 mg/dL and 36 mg/dL and 37 mg/dL"},
      {"measurement": "Blood Urea Nitrogen Levels", "setting": "Rat kidney; 1000 mg/kg daily", "value": "28 mg/dL and 30 mg/dL (2×) and 32 mg/dL and 36 mg/dL and 34 mg/dL"},
      {"measurement": "nephrotoxicity", "setting": "Rat kidney; [6]", "value": "without hepatotoxicity and nephrotoxicity"},
      {"measurement": "mucosal repair effects", "setting": "mucosal repair", "value": "found to have mucosal repair effects"}
    ]}
  ]
}
